Values quoted from earlier work as cited in patent publication US20110280834A1, “METHODS AND COMPOSITIONS FOR CARDIAC TISSUE REGENERATION” (priority 2009, published 2011).

Details: rat, in vivo, ip, 70 umol/kg

- half-life: 2 h
SMILES: O=c1[nH]c(=O)n([C@H]2C[C@H](O)[C@@H](CO)O2)cc1Br [BrdU]
